# The source made the active and inactive calls.
# How the values were obtained:
# [1] = molecular target: T1, Methionyl-tRNA synthetase, putative (Trypanosoma brucei brucei, UniProt Q38C91); assay type: functional, Trypanosoma brucei brucei strain 927/4 GUTat10.1
# T1 sequence (Q38C91 whole entry): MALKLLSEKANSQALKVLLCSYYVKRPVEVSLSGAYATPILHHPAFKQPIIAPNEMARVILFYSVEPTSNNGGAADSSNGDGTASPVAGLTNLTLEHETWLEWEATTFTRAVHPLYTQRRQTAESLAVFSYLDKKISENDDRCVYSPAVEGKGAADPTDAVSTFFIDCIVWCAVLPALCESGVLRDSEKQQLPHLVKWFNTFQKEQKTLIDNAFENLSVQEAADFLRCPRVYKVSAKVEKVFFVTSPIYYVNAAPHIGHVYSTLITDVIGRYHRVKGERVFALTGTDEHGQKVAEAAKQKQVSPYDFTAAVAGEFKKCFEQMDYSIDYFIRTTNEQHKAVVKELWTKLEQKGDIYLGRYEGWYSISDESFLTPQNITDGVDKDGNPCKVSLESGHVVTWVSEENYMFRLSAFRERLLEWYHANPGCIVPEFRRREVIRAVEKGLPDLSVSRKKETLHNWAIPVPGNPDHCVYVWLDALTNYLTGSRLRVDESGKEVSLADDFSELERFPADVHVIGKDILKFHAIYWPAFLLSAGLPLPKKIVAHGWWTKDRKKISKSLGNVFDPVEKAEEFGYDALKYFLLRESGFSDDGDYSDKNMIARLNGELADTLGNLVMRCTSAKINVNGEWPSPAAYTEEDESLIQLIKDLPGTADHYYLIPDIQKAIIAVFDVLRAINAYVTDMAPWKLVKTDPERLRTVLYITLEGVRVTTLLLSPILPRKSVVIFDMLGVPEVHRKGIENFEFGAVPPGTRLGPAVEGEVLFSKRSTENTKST
# [2] = Counterscreen for inhibitors of Trypanosoma brucei methionyl tRNA synthetase (MetRS): Luminescence-based cell-based high throughput dose response assay to identify compounds that are cytotoxic to Jurkat human T lymphocyte cells.; assay type: functional
# [3] = molecular target: T1, Methionyl-tRNA synthetase, putative; assay type: functional, Trypanosoma brucei brucei strain 927/4 GUTat10.1; remark: listed apart in the source
# [4] = Late stage counterscreen for inhibitors of Trypanosoma brucei methionyl tRNA synthetase (MetRS): Luminescence-based cell-based high throughput dose response assay to identify compounds that are cytotoxic to Jurkat human T lymphocyte cells.; assay type: functional
# HT-1080 = test: cytotoxicity in HT1080 fibrosarcoma cells, cell-based, fluorescence readout (AID 620); assay type: functional; settings: Homo sapiens
# [5] = HEK293 cell cytotoxicity, dose response, cytotoxicity control, dry powder samples (AID 720567); assay type: functional, cell-based
# [6] = molecular target: Luciferin 4-monooxygenase (Photinus pyralis, UniProt P08659); test: Counter Screen for Luciferase-based Assay Positives. [Related pubchem assays: 620, 618, 411 ]
# Sequence of Luciferin 4-monooxygenase (P08659 whole entry): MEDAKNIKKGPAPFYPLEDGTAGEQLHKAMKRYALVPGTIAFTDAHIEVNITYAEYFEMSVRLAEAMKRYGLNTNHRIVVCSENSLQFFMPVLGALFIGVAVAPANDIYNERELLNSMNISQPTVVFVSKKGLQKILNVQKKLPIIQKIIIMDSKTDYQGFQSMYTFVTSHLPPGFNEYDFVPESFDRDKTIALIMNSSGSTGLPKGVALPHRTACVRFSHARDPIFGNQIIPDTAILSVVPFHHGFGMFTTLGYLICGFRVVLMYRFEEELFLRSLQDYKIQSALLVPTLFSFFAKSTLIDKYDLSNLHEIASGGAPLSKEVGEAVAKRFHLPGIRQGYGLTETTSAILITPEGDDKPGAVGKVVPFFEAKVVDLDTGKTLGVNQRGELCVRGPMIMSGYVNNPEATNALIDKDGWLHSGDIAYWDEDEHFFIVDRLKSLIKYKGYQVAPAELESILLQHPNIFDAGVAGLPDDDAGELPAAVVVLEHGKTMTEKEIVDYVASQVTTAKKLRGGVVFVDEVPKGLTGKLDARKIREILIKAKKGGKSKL
# [7] = molecular target: 1-phosphatidylinositol 4,5-bisphosphate phosphodiesterase beta-3 (Homo sapiens, UniProt Q01970); test: Fluorescence-based biochemical high throughput dose response assay to identify inhibitors of phospholipase C isozymes (PLC-B3).
# Sequence of 1-phosphatidylinositol 4,5-bisphosphate phosphodiesterase beta-3 (Q01970 whole entry): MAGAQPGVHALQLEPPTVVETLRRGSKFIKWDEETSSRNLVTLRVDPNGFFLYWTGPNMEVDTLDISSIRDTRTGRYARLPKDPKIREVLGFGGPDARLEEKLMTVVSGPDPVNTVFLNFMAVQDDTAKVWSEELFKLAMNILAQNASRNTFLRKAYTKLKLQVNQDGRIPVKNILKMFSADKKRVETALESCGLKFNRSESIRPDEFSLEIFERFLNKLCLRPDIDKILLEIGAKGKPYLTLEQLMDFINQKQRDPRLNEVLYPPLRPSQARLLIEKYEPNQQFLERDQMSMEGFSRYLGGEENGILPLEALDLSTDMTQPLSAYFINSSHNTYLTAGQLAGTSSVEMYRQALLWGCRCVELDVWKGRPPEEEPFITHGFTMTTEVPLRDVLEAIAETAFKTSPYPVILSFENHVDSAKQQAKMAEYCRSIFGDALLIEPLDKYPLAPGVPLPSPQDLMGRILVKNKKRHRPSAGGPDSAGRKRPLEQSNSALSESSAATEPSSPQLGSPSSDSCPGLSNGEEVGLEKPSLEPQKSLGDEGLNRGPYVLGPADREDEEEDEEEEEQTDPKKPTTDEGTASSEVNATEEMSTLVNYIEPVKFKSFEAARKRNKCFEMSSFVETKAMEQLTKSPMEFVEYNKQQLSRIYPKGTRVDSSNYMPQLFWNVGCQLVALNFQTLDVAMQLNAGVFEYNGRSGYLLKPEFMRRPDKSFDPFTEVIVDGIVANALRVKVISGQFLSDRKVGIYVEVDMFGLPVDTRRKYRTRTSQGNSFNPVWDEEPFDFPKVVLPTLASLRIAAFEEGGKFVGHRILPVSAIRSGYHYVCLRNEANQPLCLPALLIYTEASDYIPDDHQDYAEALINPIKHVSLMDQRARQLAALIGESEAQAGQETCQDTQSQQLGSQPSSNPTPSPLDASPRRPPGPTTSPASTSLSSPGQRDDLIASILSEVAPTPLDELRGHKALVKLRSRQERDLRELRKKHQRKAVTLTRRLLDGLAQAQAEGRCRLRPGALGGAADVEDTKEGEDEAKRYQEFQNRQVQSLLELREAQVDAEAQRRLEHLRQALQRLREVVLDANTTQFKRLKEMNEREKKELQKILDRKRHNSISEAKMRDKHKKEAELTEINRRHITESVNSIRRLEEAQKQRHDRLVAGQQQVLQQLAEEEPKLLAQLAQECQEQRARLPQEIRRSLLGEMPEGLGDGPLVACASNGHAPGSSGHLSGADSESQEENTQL
# [8] = molecular target: 1-phosphatidylinositol 4,5-bisphosphate phosphodiesterase gamma-1 (Homo sapiens, UniProt P19174); test: Counterscreen for inhibitors of phospholipase C isozymes (PLC-B3): Fluorescence-based biochemical high throughput dose response assay to identify inhibitors of phospholipase C isozymes (PLC-gamma1).
# Sequence of 1-phosphatidylinositol 4,5-bisphosphate phosphodiesterase gamma-1 (P19174 whole entry, the tested form may be a part): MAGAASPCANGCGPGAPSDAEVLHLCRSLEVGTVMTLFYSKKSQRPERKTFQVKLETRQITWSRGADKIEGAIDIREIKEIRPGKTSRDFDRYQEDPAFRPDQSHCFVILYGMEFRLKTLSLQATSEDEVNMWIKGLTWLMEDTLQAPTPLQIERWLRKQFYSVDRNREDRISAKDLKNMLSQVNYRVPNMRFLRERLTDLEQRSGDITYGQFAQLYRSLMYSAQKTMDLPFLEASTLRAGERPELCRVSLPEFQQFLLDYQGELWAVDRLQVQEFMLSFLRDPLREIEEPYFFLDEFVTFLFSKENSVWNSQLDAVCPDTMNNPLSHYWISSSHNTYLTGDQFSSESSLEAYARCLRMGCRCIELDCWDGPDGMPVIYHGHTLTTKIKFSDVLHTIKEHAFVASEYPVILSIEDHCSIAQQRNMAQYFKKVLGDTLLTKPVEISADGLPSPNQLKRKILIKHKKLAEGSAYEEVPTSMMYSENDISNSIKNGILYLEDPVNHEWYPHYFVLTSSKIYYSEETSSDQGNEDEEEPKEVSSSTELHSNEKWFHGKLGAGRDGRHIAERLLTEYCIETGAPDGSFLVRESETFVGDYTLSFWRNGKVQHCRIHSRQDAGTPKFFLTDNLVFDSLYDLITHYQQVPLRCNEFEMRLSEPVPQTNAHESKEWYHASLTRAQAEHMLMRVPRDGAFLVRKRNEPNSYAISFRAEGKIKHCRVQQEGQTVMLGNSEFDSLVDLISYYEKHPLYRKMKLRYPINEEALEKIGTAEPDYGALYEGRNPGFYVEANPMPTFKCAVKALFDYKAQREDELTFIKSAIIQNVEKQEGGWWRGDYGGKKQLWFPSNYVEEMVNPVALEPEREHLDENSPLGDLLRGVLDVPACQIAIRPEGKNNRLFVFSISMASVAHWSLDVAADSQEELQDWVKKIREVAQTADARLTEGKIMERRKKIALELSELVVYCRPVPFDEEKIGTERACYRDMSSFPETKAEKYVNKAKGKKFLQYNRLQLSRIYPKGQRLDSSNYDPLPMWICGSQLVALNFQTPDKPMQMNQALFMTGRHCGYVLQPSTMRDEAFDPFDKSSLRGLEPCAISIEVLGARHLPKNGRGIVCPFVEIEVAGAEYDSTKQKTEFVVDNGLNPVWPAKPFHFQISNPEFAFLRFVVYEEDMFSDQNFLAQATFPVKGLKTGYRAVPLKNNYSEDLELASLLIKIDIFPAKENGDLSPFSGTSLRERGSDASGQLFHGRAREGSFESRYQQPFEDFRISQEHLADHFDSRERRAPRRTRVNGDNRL
# [9] = inhibitors of HIV Env-driven cell fusion, dose response, cherry-pick (AID 652057); assay type: functional, cell-based
# [10] = CEM21 cell cytotoxicity, dose response, cytotoxicity control, plate reader, dry powder (AID 687026); assay type: functional, cell-based
# [11] = HIV Env cell-cell fusion inhibitors, dose response, HIV entry, plate reader, dry powder (AID 687023); assay type: functional, cell-based
# [12] = CEM21 lymphoblast cell cytotoxicity, dose response, cytotoxicity control for viral fusion inhibitor project, CellTiter-Glo luminescence, cherry-picked (AID 652042); assay type: functional, cell-based;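 further: potency for signal decrease meaning cytotoxicity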
# [13] = cytotoxicity in HepG2 cells, dose response, cytotoxicity control, cell-based, plate reader, dry powder (AID 651947); assay type: functional
# [14] = inhibitors of non-replicating M. tuberculosis, dose response, luciferase, dry powder (AID 651619); assay type: functional; settings: Mycobacterium tuberculosis
# [15] = growth inhibition of replicating M. tuberculosis, dose response, counter-screen, dry powder, IC90 (AID 651617); assay type: functional; settings: Mycobacterium tuberculosis
# [16] = cytotoxicity in HeLa cells, dose response, cytotoxicity control, cell-based, plate reader, dry powder (AID 651946); assay type: functional
# [17] = inhibitors of non-replicating M. tuberculosis, dose response, luciferase, dry powder (AID 651620); assay type: functional; settings: Mycobacterium tuberculosis
compound,measurement,setting,value
O=C(NCc1nc2ccccc2[nH]1)C1=C[C@H](c2ccc3c(c2)OCO3)C[C@H](OCCCCO)O1,IC50,[1],1.84 µM (active)
same,IC50,[2],83.3 µM (inactive)
same,IC50,[3],3.35 µM (active)
same,IC50,[4],> 83.3 µM (inactive)
Cc1cc(NC(=O)CSc2nc(-c3ccco3)cc(C(F)(F)F)n2)no1,EC50,HT-1080,6.41 µM (active)
same,AC50,[5],> 30 µM (inactive)
same,EC50,[6],1.59 µM (active)
O=C(NCc1ccc(F)cc1)c1cc2c(s1)CCCC2,IC50,[7],> 123 µM (inactive)
same,IC50,[8],> 123 µM (inactive)
C[C@@H]1CN([C@H](C)CO)C(=O)c2cccc(NS(=O)(=O)c3ccc(Cl)cc3)c2O[C@@H]1CN(C)Cc1ccc(Cl)c(Cl)c1,AC50,[9],1.45 µM (active)
same,AC50,[10],18.9 µM (active)
same,AC50,[11],7.39 µM (active)
same,AC50,[12],52.9 µM (active)
Clc1ccc(-c2nnc(SCc3ccccn3)o2)cc1,AC50,[13],27.8 µM (active)
same,IC90,[14],4 µM (active)
same,IC90,[15],62 µM (active)
same,AC50,[16],> 52 µM (inactive)
same,IC90,[17],4 µM (active)

# — ChEMBL document CHEMBL1201862, “PubChem BioAssay data set” (2004)
